Format in all cases: cell-based
Data set [1] in a line: Compound cytotoxicity, XTT-based colorimetric assay. As to conditions: human; uninfected MT2 cells, day 4, XTT. The protocol:
(§1) Compound cytotoxicity and the corresponding CC50 values were determined using the same protocol as described in the antiviral assay except that uninfected cells were used. Cytotoxicity was assessed on day 4 in uninfected MT2 cells by using a XTT (2,3-bis[2-Methoxy-4-nitro-5-sulfophenyl]-2H-tetrazolium-5-carboxyanilide inner salt)-based colorimetric assay (Sigma-Aldrich, St Louis, Mo.).
(Formazan colour is commonly taken as a measure of viable cells.)

Data set [2] deals with recombinant NL4-3 virus. The experiment in a line: HIV cell culture assay (luciferase reporter antiviral activity). How it is done: HIV cell culture assay—MT=2 cells, 293T cells and the proviral DNA clone of NL4-3 virus were obtained from the NIH AIDS Research and Reference Reagent Program. MT=2 cells were propagated in RPMI 1640 media supplemented with 10% heat inactivated fetal bovine serum (FBS), […] penicillin G and up to 100 units/mL streptomycin. The 293T cells were propagated in DMEM media supplemented with 10% heat inactivated FBS, […] penicillin G and […] streptomycin. A recombinant NL4-3 proviral clone, in which a section of the nef gene was replaced with the Renilla luciferase gene, was used to make the reference virus used in these studies. The recombinant virus was prepared through transfection of the recombinant NL4-3 proviral clone into 293T cells using Transit-293 Transfection Reagent from Mirus Bio LLC (Madison, Wis.). Supernatent was harvested after 2-3 days and the amount of virus present was titered in MT=2 cells using luciferase enzyme activity as a marker by measuring luciferase enzyme activity. Luciferase was quantitated using the EnduRen Live Cell Substrate from Promega (Madison, Wis.). Antiviral activities of compounds toward the recombinant virus were quantified by measuring luciferase activity in MT=2 cells infected for 4-5 days with the recombinant virus in the presence of serial dilutions of the compound.
The 50% effective concentration (EC50) was calculated by using the exponential form of the median effect equation where (Fa)=1/[1+(ED50/drug conc.)m] (Johnson V A, Byington RT. Infectivity Assay. In Techniques in HIV Research. ed. Aldovini A, Walker B D. 71-76. New York: Stockton Press.1990). The 50% inhibitory concentration (EC50) was calculated by using the exponential form of the median effect equation where percent inhibition=1/[1+(EC50/drug concentration)m], where m is a parameter that reflects the slope of the concentration-response curve.
For orientation: A reporter such as luciferase makes a cellular process visible.

Data set [3] relates to uninfected MT2 cells. In words: Compound cytotoxicity, XTT-based colorimetric assay. How it is done: as §1
Setting [4] is: Human immunodeficiency virus 1, NL43, MT2.

Structures are written as SMILES. Read-outs that look alike come from different tables or passages of the source.

The molecule `O=C(Cn1nc(C(F)F)cc1C1CC1)N[C@@H](Cc1cc(F)cc(F)c1)c1nc2cc(-c3ccccn3)ccc2c(=O)n1-c1ccc(Cl)c2c(NS(=O)(=O)C3CC3)nn(CC(F)F)c12` (atropisomer, axis not shown; (P)) [Example 33, (S)-N-(1-((3P)-3-(4-chloro-3-(cyclopropanesulfonamido)-1-(2,2-difluoroethyl)-1H-indazol-7-yl)-4-oxo-7-(pyridin-2-yl)-3,4-dihydroquinazolin-2-yl)-2-(3,5-difluorophenyl)ethyl)-2-(5-cyclopropyl-3-(difluoromethyl)-1H-pyrazol-1-yl)acetamide] returned a CC50 at 4 days in data set [1] greater than 500 nM. Further, in data set [2] (setting [4]), the EC50 is 0.79 nM.

The molecule `O=C(Cn1nc(C(F)F)cc1C1CC1)N[C@@H](Cc1cc(F)cc(F)c1)c1nc2cc(-c3ncccn3)ccc2c(=O)n1-c1ccc(Cl)c2c(NS(=O)(=O)C3CC3)nn(CC(F)F)c12` (atropisomer, axis not shown; (P)) [Example 34, (S)-N-(1-((3P)-3-(4-chloro-3-(cyclopropanesulfonamido)-1-(2,2-difluoroethyl)-1H-indazol-7-yl)-4-oxo-7-(pyrimidin-2-yl)-3,4-dihydroquinazolin-2-yl)-2-(3,5-difluorophenyl)ethyl)-2-(5-cyclopropyl-3-(difluoromethyl)-1H-pyrazol-1-yl)acetamide] had a CC50 at 4 days in data set [1] greater than 500 nM. For the same molecule, the EC50 in data set [2] (setting [4]) stood at 0.4 nM.

In the case of `Cc1nccnc1-c1ccc2c(=O)n(-c3ccc(Cl)c4c(NS(=O)(=O)C5CC5)nn(CC(F)F)c34)c([C@H](Cc3cc(F)cc(F)c3)NC(=O)Cn3nc(C(F)F)cc3C3CC3)nc2c1` (atropisomer, axis not shown; (P)) [Example 35, (S)-N-(1-((3P)-3-(4-chloro-3-(cyclopropanesulfonamido)-1-(2,2-difluoroethyl)-1H-indazol-7-yl)-7-(3-methylpyrazin-2-yl)-4-oxo-3,4-dihydroquinazolin-2-yl)-2-(3,5-difluorophenyl)ethyl)-2-(5-cyclopropyl-3-(difluoromethyl)-1H-pyrazol-1-yl)acetamide], in data set [1], the CC50 at 4 days is greater than 500 nM. For the same molecule, the EC50 in data set [2] (setting [4]) is 0.36 nM.

`Cc1cc(F)ccc1-c1ccc2c(=O)n(-c3ccc(C)c4c(NS(C)(=O)=O)nn(C)c34)c([C@H](Cc3cc(F)cc(F)c3)NC(=O)Cn3nc(C(F)F)c4c3C(F)(F)[C@@H]3C[C@H]43)nc2c1` (atropisomer, axis not shown; (aR)) [Example 31, 2-((3bS,4aR)-3-(difluoromethyl)-5,5-difluoro-3b,4,4a,5-tetrahydro-1H-cyclopropa[3,4]cyclopenta[1,2-c]pyrazol-1-yl)-N-((S)-2-(3,5-difluorophenyl)-1-(3-(1,4-dimethyl-3-(methylsulfonamido)-1H-indazol-7-yl)-(3P)-7-(4-fluoro-2-methylphenyl)-4-oxo-3,4-dihydroquinazolin-2-yl)ethyl)acetamide] registered a CC50 at 4 days in data set [1] greater than 500 nM. The EC50 in data set [2] (setting [4]) came out at 2.3 nM.

Regarding `Cc1nccnc1-c1ccc2c(=O)n(-c3ccc(C)c4c(NS(C)(=O)=O)nn(C)c34)c(C(Cc3cc(F)cc(F)c3)NC(=O)Cn3nc(C(F)F)c4c3C(F)(F)[C@@H]3C[C@H]43)nc2c1` (stereo partly drawn) [Example 6, 2-((3bS,4aR)-3-(difluoromethyl)-5,5-difluoro-3b,4,4a,5-tetrahydro-1H-cyclopropa[3,4]cyclopenta[1,2-c]pyrazol-1-yl)-N-((S)-2-(3,5-difluorophenyl)-1-(3-(1,4-dimethyl-3-(methylsulfonamido)-1H-indazol-7-yl)-(3P)-7-(3-methylpyrazin-2-yl)-4-oxo-3,4-dihydroquinazolin-2-yl)ethyl)acetamide], in data set [1], the CC50 at 4 days is greater than 500 nM. In addition, the EC50 in data set [2] (setting [4]) was determined as 0.056 nM.

As for `Cc1nccnc1-c1ccc2c(=O)n(-c3ccc(Cl)c4c(NS(C)(=O)=O)nn(C)c34)c([C@H](Cc3cc(F)cc(F)c3)NC(=O)Cc3cn(C(C)C)c4ccccc34)nc2c1` [Example 8, (S)-N-(1-((3P)-3-(4-chloro-1-methyl-3-(methylsulfonamido)-1H-indazol-7-yl)-7-(3-methylpyrazin-2-yl)-4-oxo-3,4-dihydroquinazolin-2-yl)-2-(3,5-difluorophenyl)ethyl)-2-(1-isopropyl-1H-indol-3-yl)acetamide], in data set [3], the CC50 was greater than 500 nM. In data set [2] (MT-2 cells infected for 4-5 days with recombinant NL4-3 Renilla luciferase virus, read-out: EC50), the half-maximal effective concentration (EC50) is 0.45 nM.

The molecule `Cn1nc(NS(C)(=O)=O)c2c(Cl)ccc(-n3c([C@H](Cc4cc(F)cc(F)c4)NC(=O)Cn4ccc5ccccc54)nc4cc(-c5ccccc5F)ccc4c3=O)c21` [Example 30, (S)-N-(1-((3P)-3-(4-chloro-1-methyl-3-(methylsulfonamido)-1H-indazol-7-yl)-7-(2-fluorophenyl)-4-oxo-3,4-dihydroquinazolin-2-yl)-2-(3,5-difluorophenyl)ethyl)-2-(1H-indol-1-yl)acetamide] showed a CC50 at 4 days in data set [1] greater than 500 nM. Moreover, the EC50 in data set [2] (setting [4]) is 3 nM.

The CC50 is the concentration that lowers cell viability or growth by half. The term EC50 denotes the concentration at which the effect is half-maximal.

The values are drawn from US20220370451A1, “INHIBITORS OF HUMAN IMMUNODEFICIENCY VIRUS REPLICATION” (VIIV HEALTHCARE UK ( No. 5) LIMITED, priority 2019, published 2022).
